According to US20100280021A1, “PYRIDOPYRIMIDINE PROTEIN TYROSINE PHOSPHATASE INHIBITORS” (priority 2005, published 2010):

biological target: T1, Human PTP1B (1-321) (Homo sapiens, UniProt P18031); experiment: In vitro inhibition of PTP1B (PTPase assays: Malachite Green phosphopeptide method or DiFMUP method); type: biochemical; settings: PTP1B inhibitory activity
T1 construct: Human PTP1B (1-321) was cloned from a human cDNA library; made in house; host or cells: E. coli
T1 sequence (P18031 1-321): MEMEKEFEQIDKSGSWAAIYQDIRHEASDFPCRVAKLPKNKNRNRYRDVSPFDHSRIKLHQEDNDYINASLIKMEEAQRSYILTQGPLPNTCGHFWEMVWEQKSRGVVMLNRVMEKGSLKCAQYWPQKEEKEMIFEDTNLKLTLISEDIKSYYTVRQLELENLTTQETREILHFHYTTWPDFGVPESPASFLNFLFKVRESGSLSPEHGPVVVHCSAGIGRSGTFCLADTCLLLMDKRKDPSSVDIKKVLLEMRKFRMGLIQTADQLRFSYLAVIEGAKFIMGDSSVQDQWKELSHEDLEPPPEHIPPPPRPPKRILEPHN
Method: Human PTP1B (1-321) was cloned from a human cDNA library using conventional molecular biology techniques. The cDNA sequence was identical to the published human PTP1B sequence (Accession number M33689). The protein was expressed and purified from E. coli as described by Barford D. et. al J. Mol. Biol (1994) 239, 726-730.
The measurement of PTPase activity was carried out using one of two methods:
The first method for the measurement of PTP1B inhibitory activity a tyrosine phosphorylated peptide based on the amino acid sequence of insulin receptor tyrosine autophosphorylation site 1146 (TRDI(pY)E) was used as substrate. The reaction conditions were as follows:
PTP1B (0.5-2 nM) was incubated with compound for 15 min in buffer containing 37.5 mM Bis-Tris buffer pH 6.2, 140 mMNaCl, 0.05% BSA and 2 mM DTT. The reaction was started by the addition of 50 μM substrate. After 20 min at room temperature (22-25° C.), the reaction was stopped with KOH and the amount of free phosphate measured using Malachite Green as previously described (Harder et al. 1994 Biochem J. 298; 395).
The second method was used for the measurement of general PTPase inhibitory activity across a panel of PTPases the substrate (6,8-difluoro-4-methylumbelliferyl phosphate (DiFMUP; from Molecular Probes) was used at the Km for each enzyme. The buffer conditions were identical as in the Malachite Green assay. The reaction was stopped with KOH. In this case the dephosphoryated product becomes fluorescent and the fluorescense read (Excitiation: […]/Emmission: 460 nM).
The following Table lists IC50 results for several of the above exemplified compounds: […]

IC50 [µM] | SMILES
1.66 | CNc1nc(N)nc2nc(-c3ccccc3C)ccc12 [Example 1, N4-Methyl-7-o-tolyl-pyrido[2,3-d]pyrimidine-2,4-diamine]
0.51 | CNc1nc(N)nc2nc(-c3c(Cl)cccc3Cl)ccc12 [Example 3, 7-(2,6-Dichloro-phenyl)-N4-methyl-pyrido[2,3-d]pyrimidine-2,4-diamine]
1.41 | CNc1nc(N)nc2nc(C3CCCCC3)ccc12 [Example 9, 7-Cyclohexyl-N4-methyl-pyrido[2,3-d]pyrimidine-2,4-diamine]
3.57 | CNc1nc(N)nc2nc(-c3cccs3)ccc12 [Example 13, N4-Methyl-7-thiophen-2-yl-pyrido[2,3-d]pyrimidine-2,4-diamine]
2.56 | CNc1nc(N)nc2nc(-c3ccccc3)c(-c3ccccc3)cc12 [Example 14, N4-Methyl-6,7-diphenyl-pyrido[2,3-d]pyrimidine-2,4-diamine]
4.22 | CNc1nc(N)nc2nc3c(cc12)CCc1ccccc1-3 [Example 27, N8-Methyl-5,6-dihydro-benzo[h]pyrimido[4,5-b]quinoline-8,10-diamine]
1.15 | CNc1nc(N)nc2nc(-c3cccc4ccccc34)ccc12 [Example 28, N4-Methyl-7-naphthalen-1-yl-pyrido[2,3-d]pyrimidine-2,4-diamine]
0.25 | CNc1nc(N)nc2nc(-c3ccccc3C(F)(F)F)c(C(=O)O)cc12 [Example 56, 2-Amino-4-methylamino-7-(2-trifluoromethyl-phenyl)-pyrido[2,3-d]pyrimidine-6-carboxylic acid]
10.8 | CNc1nc(N)nc2nc(C3(c4ccccc4)CCCCC3)ccc12 [Example 59, N4-Methyl-7-(1-phenyl-cyclohexyl)-pyrido[2,3-d]pyrimidine-2,4-diamine]
0.17 | CNc1nc(N)nc2nc(-c3c(Oc4ccccc4)cccc3C(F)(F)F)ccc12 [Example 80, N4-Methyl-7-(2-phenoxy-6-trifluoromethyl-phenyl)-pyrido[2,3-d]pyrimidine-2,4-diamine]
2.33 | CNc1nc(N)nc2nc(-c3c(F)cccc3N3CCOCC3)ccc12 [Example 92, 7-(2-Fluoro-6-morpholino-4-yl-phenyl)-N4-methyl-pyrido[2,3-d]pyrimidine-2,4-diamine]
0.8 | CNc1nc(N)nc2nc(-c3c(N4C(C)CCC4C)cccc3C(F)(F)F)ccc12 (stereo not drawn) [Example 107, 7-[2-(2,5-Dimethyl-pyrrolidin-1-yl)-6-trifluoromethyl-phenyl]-N4-methyl-pyrido[2,3-d]pyrimidine-2,4-diamine]
0.3 | CNc1nc(N)nc2nc(-c3c(N4CCN(C(=O)c5ccco5)CC4)cccc3C(F)(F)F)ccc12 [Example 116, {4-[2-(2-Amino-4-methylamino-pyrido[2,3-d]pyrimidin-7-yl)-3-trifluoromethyl-phenyl]-piperazin-1-yl}-furan-2-yl-methanone]
2.05 | CNc1nc(N)nc2nc(-c3c(N4CCC(Cc5ccccc5)CC4)cccc3C(F)(F)F)ccc12 [Example 121, 7-[2-(4-Benzyl-piperidin-1-yl)-6-trifluoromethyl-phenyl]-N4-methyl-pyrido[2,3-d]pyrimidine-2,4-diamine]
52.4 | CNc1nc(N)nc2nc(-c3ccccc3)cc(-c3ccccc3)c12 [Example 139, N*4*-Methyl-5,7-diphenyl-pyrido[2,3-d]pyrimidine-2,4-diamine]
